This note sets out measurements from US20050074447A1, “Treatment for diabetic microvascular and macrovascular complications” (priority 2003, published 2005).

One series deals with rat INS-1 β-cells. The series is described as follows: MTS cell viability: protection of INS-1 β-cells from STZ, Example 3. The series is classed as cell-based. The conditions noted are these: for protection of INS-1 cells from STZ (relative viability): different concentrations of alpha- or gamma-tocopherol, overnight pre-incubation, then 24 hours with STZ 1 mM. As to the method:
INS-1 cells were cultured overnight in 96 well culture plates in a humidified incubator at 37° C., in the presence or absence of different concentrations of alpha- or gamma-tocopherol and then in the presence of a combination of equimolar parts of gamma- and alpha-tocopherol (25 μM gamma-, 25 μM alpha-tocopherol). The cells at each condition were then cultured for an additional 24 hours either in the presence or absence of STZ (1 mM). Alpha-tocopherol and gamma-tocopherol concentrations in each well were kept the same as those used in the pre-incubation phase. Cell viability was measured with the MTS assay. Results were normalized and values were expressed relative to control (relative viability).

Series [1] relates to Retinal endothelial cells. In words: MTS cell viability: protection of retinal endothelial cells from 25 mM glucose and 2 mM palmitate, Example 2. Format: cell-based, Rhesus monkey. The conditions noted are these: tocopherol used alone; overnight pre-incubation, then 8 hours with 25 mM glucose and 2 mM palmitate. As to the method: Retinal endothelial cells were cultured overnight in 96 well culture plates in a humidified incubator at 37° C., in the presence or absence of either 50 μM of alpha-tocopherol, 50 μM of gamma-tocopherol or 25 μM alpha-tocopherol plus 25 μM gamma-tocopherol when used in combination. The cells at each condition were then cultured for an additional 8 hours either in the presence or absence of 25 mM glucose and 2 mM palmitate. Alpha-tocopherol and gamma-tocopherol concentrations in each well were kept the same as those used in the pre-incubation phase. Cell viability was measured with the MTS assay. Results were normalized and values were expressed relative to basal glucose control (relative viability).

Series [2] concerns Rhesus monkey retinal endothelial cells (ATCC CRL-1780). In words: MTS cell viability of retinal endothelial cells exposed to hyperglycemia and elevated FFA (palmitate), Example 1. Format: cell-based. The following applies: hyperglycemia (25 mM glucose) and elevated FFA (1 and 2 mM palmitate), overnight. As to the method: Rhesus monkey retinal endothelial cells (ATCC CRL-1780) were cultured overnight in 96 well culture plates in a humidified incubator at 37° C., under either basal (5 mM) or hyperglycemic (25 mM) conditions in the absence FFA or in with a 1 and 2 mM palmitate concentration illustrating an elevated FFA environment. At the end of the incubation period endothelial cell viability was measured with the MTS assay and results were expressed relative to the control (5 mM glucose no FFA). The results are shown in Table 1, where error bars represent standard deviations from the mean of triplicate measurements per condition. The relative viability of endothelial cells exposed to hyperglycemia and elevated FFA, as compared to the control, was about 45%. The data in Table 1 illustrates that FFA are cytotoxic to retinal endothelial cells and that their cytotoxicity is enhanced by hyperglycemia. [drawing]

Entries after “also recorded” stand apart in the source; their conditions may differ.

For the molecule `CN(N=O)C(=O)N[C@@H]1[C@@H](O)[C@H](O)[C@@H](CO)O[C@@H]1O` [STZ], the “effect of STZ on viability of INS-1 cells” value in the series on rat INS-1 β-cells (STZ 1 mM, 24 hours) is “reduced viability”.
As for `Cc1c(C)c2c(c(C)c1O)CC[C@@](C)(CCC[C@H](C)CCC[C@H](C)CCCC(C)C)O2` [alpha-tocopherol], the “relative cell viability (relative to basal glucose control)” value in series [1] was 40 to 50%. In addition, in the series with rat INS-1 β-cells, the “protection of INS-1 cells from STZ (relative viability)” value is recorded as “protected from these effects in a dose dependent manner”.
Consider `Cc1c(O)cc2c(c1C)O[C@](C)(CCC[C@H](C)CCC[C@H](C)CCCC(C)C)CC2` [gamma-tocopherol], for which, in the series with rat INS-1 β-cells, the “protection of INS-1 cells from STZ (relative viability)” value was “protected from these effects in a dose dependent manner; also recorded: more effective than alpha-tocopherol”.
In the case of `CCCCCCCCCCCCCCCC(=O)O` [palmitate], the “relative viability of endothelial cells as compared to the control (5 mM glucose no FFA)” value in series [2] is on record as “about 45%”.
